According to ChEMBL document CHEMBL1143987, “Structure and estrogenic activity of new lignans from Iryanthera lancifolia” (2008):
Activity calls are given as the source filed them. The calls are words filed in the database; no cut-off is given here.

Key:
Assay type in all cases: functional
[1] = tested on: MCF7; assay: Estrogenic potency in human MCF7 BUS cells assessed as drug level inducing maximal cell proliferation
[2] = tested on: MCF7; assay: Proliferative effect in human MCF7 BUS cells assessed as ratio of increase in cell number in drug treated to control
[3] = tested on: MCF7; assay: Proliferative potency in human MCF7 BUS cells assessed as induction of maximal cell proliferation relative to 17-beta estradiol
[4] = tested on: MCF7; assay: Proliferative effect in human MCF7 BUS cells assessed as increase in cell number relative to 17-beta estradiol; design: concentration or dose not given beside the values

Row | Structure (SMILES) | MED [1] | Ratio [2] | Activity [3] | Activity [4] | Activity [2]
1 | C[C@]12CC[C@@H]3c4ccc(O)cc4CC[C@H]3[C@@H]1CC[C@@H]2O [ESTRADIOL] | 0.001 µM | 8 |  |  | 
2 | COc1cc(O)cc(O)c1C(=O)CCc1ccc2c(c1)OCO2 | 10 µM | 2.5 | 0.01% | 22.1% | 
3 | C[C@H](Cc1ccc(O)cc1)[C@H](C)Cc1ccc2c(c1)OCO2 | 10 µM | 5.8 | 0.01% | 68.7% | 
4 | C[C@H](Cc1ccc2c(c1)OCO2)[C@@H](C)Cc1ccc2c(c1)OCO2 [MACHILIN A] | 10 µM | 1.9 | 0.01% | 13.5% | 
5 | C[C@H](Cc1ccc2c(c1)OCO2)[C@H](C)C(=O)c1ccc(O)cc1 | 10 µM | 4.51 | 0.01% | 50.1% | 
6 | Oc1ccc2c(c1)O[C@H](c1ccc3c(c1)OCO3)CC2 | 10 µM | 5.7 | 0.01% | 67.1% | 
7 | C[C@@H]([C@H](C)Cc1ccc2c(c1)OCO2)[C@@H](O)c1ccc2c(c1)OCO2 [OLEIFERIN C] | 10 µM | 4.4 | 0.01% | 47.8% | 
8 | C[C@@H]1[C@@H](c2ccc(O)cc2)c2cc(O)ccc2C[C@H]1C | 10 µM | 6.4 | 0.01% | 77.8% | 
9 | C/C(=C/c1ccc(O)cc1)C(C)Cc1ccc(O)cc1 (stereo unspecified) | 10 µM | 6.2 | 0.01% | 73.7% | 
10 | C/C=C/c1cc(OC)c2c(c1)[C@@H](C)[C@H](c1ccc3c(c1)OCO3)O2 [LICARINE B] |  |  | 0% | 0% | inactive
11 | CCO[C@@H](c1ccc2c(c1)OCO2)[C@@H](C)[C@H](C)Cc1ccc2c(c1)OCO2 | 10 µM | 6.9 | 0.01% | 84% | 
12 | COc1ccc(CCC(=O)c2c(O)cc(O)cc2OC)cc1 | 10 µM | 6.6 | 0.01% | 80.7% | 
13 | C[C@@H]1[C@@H](c2ccc3c(c2)OCO3)c2cc3c(cc2C[C@H]1C)OCO3 [CAGAYANINE] | 10 µM | 2.2 | 0.01% | 17.9% | 
14 | C/C=C/c1cc(OC)c2c(c1)[C@@H](C)[C@H](c1ccc(O)c(OC)c1)O2 [LICARINE A] | 10 µM | 2.8 | 0.01% | 26.4% | 
15 | COc1cc(C[C@H](C)[C@H](C)Cc2ccc3c(c2)OCO3)ccc1O [AUSTROBAILIGNAN 6] |  |  | 0% | 0% | inactive
16 | C[C@@H]([C@H](C)Cc1ccc2c(c1)OCO2)[C@H](O)c1ccc2c(c1)OCO2 |  |  | 0% | 0% | inactive
17 | COc1ccc([C@H]2Oc3c(OC)cc(C=O)cc3[C@@H]2C)cc1O [PERSEAL F] |  |  | 0% | 0% | inactive
18 | COc1cc(C(=O)[C@@H](C)[C@H](C)Cc2ccc3c(c2)OCO3)ccc1O [OLEIFERIN D] | 10 µM | 4 | 0.01% | 42.8% | 
